{"source": "patent US5688938A", "about": "“Calcium receptor-active molecules” (priority 1995, dated 1997)", "key": {"[1]": {"assay": "serum ionized Ca^2+ in parathyroidectomized rats", "format": "in vivo, rat", "conditions": "oral", "text": "To determine the primary target tissue upon which NPS R-467 acts to cause a hypocalcemic response, the parathyroid glands in rats were surgically removed. Animals receiving a total parathyroidectomy become hypocalcemic and are largely dependent upon dietary calcium to maintain serum Ca^2+ homeostasis."}, "[2]": {"assay": "single oral doses of NPS R-568 in a healthy post-menopausal person", "format": "in vivo, human", "text": "A range of single oral doses was used to assess safety, tolerance, and changes in primary hyperparathyroidism markers (e.g., plasma concentrations of parathyroid hormone and ionized serum calcium) and of serum calcitonin."}, "[3]": {"assay": "net positive charge", "format": "physicochemical"}}, "data": [{"smiles": "COc1cccc([C@@H](C)NCCCc2ccccc2Cl)c1", "note": "[NPS R-568, (R)-(+)-N-[3-(2-chlorophenyl)propyl]-α-methyl-3-methoxybenzylamine]", "values": [{"measurement": "hypocalcemic response in parathyroidectomized rats", "setting": "[1]", "result": "fails to elicit a hypocalcemic response"}, {"measurement": "Serum Calcitonin", "setting": "[2]; 20 mg oral, 0 h", "result": 3.2, "unit": "pg/mL"}, {"measurement": "Serum Ionized Calcium", "setting": "[2]; 20 mg oral, 0 h", "result": 1.26, "unit": "mM"}, {"measurement": "Serum PTH", "setting": "[2]; 20 mg oral, 0 h", "result": 31, "unit": "pg/mL"}, {"measurement": "Serum Calcitonin", "setting": "[2]; 20 mg oral, 0.5 h", "result": 3.8, "unit": "pg/mL"}, {"measurement": "Serum Ionized Calcium", "setting": "[2]; 20 mg oral, 0.5 h", "result": 1.26, "unit": "mM"}, {"measurement": "Serum PTH", "setting": "[2]; 20 mg oral, 0.5 h", "result": 23, "unit": "pg/mL"}, {"measurement": "Serum Calcitonin", "setting": "[2]; 20 mg oral, 1 h", "result": 3.2, "unit": "pg/mL"}, {"measurement": "Serum Ionized Calcium", "setting": "[2]; 20 mg oral, 1 h", "result": 1.26, "unit": "mM"}, {"measurement": "Serum PTH", "setting": "[2]; 20 mg oral, 1 h", "result": 18, "unit": "pg/mL"}, {"measurement": "Serum Calcitonin", "setting": "[2]; 20 mg oral, 2 h", "result": 4.5, "unit": "pg/mL"}, {"measurement": "Serum Ionized Calcium", "setting": "[2]; 20 mg oral, 2 h", "result": 1.26, "unit": "mM"}, {"measurement": "Serum PTH", "setting": "[2]; 20 mg oral, 2 h", "result": 24, "unit": "pg/mL"}, {"measurement": "Serum Calcitonin", "setting": "[2]; 20 mg oral, 4 h", "result": 4.2, "unit": "pg/mL"}, {"measurement": "Serum Ionized Calcium", "setting": "[2]; 20 mg oral, 4 h", "result": 1.26, "unit": "mM"}, {"measurement": "Serum PTH", "setting": "[2]; 20 mg oral, 4 h", "result": 34, "unit": "pg/mL"}, {"measurement": "Serum Calcitonin", "setting": "[2]; 20 mg oral, 8 h", "result": 3.9, "unit": "pg/mL"}, {"measurement": "Serum Ionized Calcium", "setting": "[2]; 20 mg oral, 8 h", "result": 1.26, "unit": "mM"}, {"measurement": "Serum PTH", "setting": "[2]; 20 mg oral, 8 h", "result": 34, "unit": "pg/mL"}, {"measurement": "Serum Calcitonin", "setting": "[2]; 20 mg oral, 12 h", "result": 3.2, "unit": "pg/mL"}, {"measurement": "Serum Ionized Calcium", "setting": "[2]; 20 mg oral, 12 h", "result": 1.23, "unit": "mM"}, {"measurement": "Serum PTH", "setting": "[2]; 20 mg oral, 12 h", "result": 48, "unit": "pg/mL"}, {"measurement": "Serum Calcitonin", "setting": "[2]; 20 mg oral, 24 h", "result": 3.6, "unit": "pg/mL"}, {"measurement": "Serum Ionized Calcium", "setting": "[2]; 20 mg oral, 24 h", "result": 1.29, "unit": "mM"}, {"measurement": "Serum PTH", "setting": "[2]; 20 mg oral, 24 h", "result": 32, "unit": "pg/mL"}, {"measurement": "Serum Calcitonin", "setting": "[2]; 240 mg oral, 0 h", "result": 5.8, "unit": "pg/mL"}, {"measurement": "Serum Ionized Calcium", "setting": "[2]; 240 mg oral, 0 h", "result": 1.26, "unit": "mM"}, {"measurement": "Serum PTH", "setting": "[2]; 240 mg oral, 0 h", "result": 29, "unit": "pg/mL"}, {"measurement": "Serum Calcitonin", "setting": "[2]; 240 mg oral, 0.5 h", "result": 4.8, "unit": "pg/mL"}, {"measurement": "Serum Ionized Calcium", "setting": "[2]; 240 mg oral, 0.5 h", "result": 1.26, "unit": "mM"}, {"measurement": "Serum PTH", "setting": "[2]; 240 mg oral, 0.5 h", "result": 18, "unit": "pg/mL"}, {"measurement": "Serum Calcitonin", "setting": "[2]; 240 mg oral, 1 h", "result": 6.5, "unit": "pg/mL"}, {"measurement": "Serum Ionized Calcium", "setting": "[2]; 240 mg oral, 1 h", "result": 1.25, "unit": "mM"}, {"measurement": "Serum PTH", "setting": "[2]; 240 mg oral, 1 h", "result": 6, "unit": "pg/mL"}, {"measurement": "Serum Calcitonin", "setting": "[2]; 240 mg oral, 2 h", "result": 7.5, "unit": "pg/mL"}, {"measurement": "Serum Ionized Calcium", "setting": "[2]; 240 mg oral, 2 h", "result": 1.23, "unit": "mM"}, {"measurement": "Serum PTH", "setting": "[2]; 240 mg oral, 2 h", "result": 6, "unit": "pg/mL"}, {"measurement": "Serum Calcitonin", "setting": "[2]; 240 mg oral, 4 h", "result": 6.1, "unit": "pg/mL"}, {"measurement": "Serum Ionized Calcium", "setting": "[2]; 240 mg oral, 4 h", "result": 1.19, "unit": "mM"}, {"measurement": "Serum PTH", "setting": "[2]; 240 mg oral, 4 h", "result": 10, "unit": "pg/mL"}, {"measurement": "Serum Calcitonin", "setting": "[2]; 240 mg oral, 8 h", "result": 4.7, "unit": "pg/mL"}, {"measurement": "Serum Ionized Calcium", "setting": "[2]; 240 mg oral, 8 h", "result": 1.16, "unit": "mM"}, {"measurement": "Serum PTH", "setting": "[2]; 240 mg oral, 8 h", "result": 27, "unit": "pg/mL"}, {"measurement": "Serum Calcitonin", "setting": "[2]; 240 mg oral, 12 h", "result": 5.3, "unit": "pg/mL"}, {"measurement": "Serum Ionized Calcium", "setting": "[2]; 240 mg oral, 12 h", "result": 1.18, "unit": "mM"}, {"measurement": "Serum PTH", "setting": "[2]; 240 mg oral, 12 h", "result": 35, "unit": "pg/mL"}, {"measurement": "Serum Calcitonin", "setting": "[2]; 240 mg oral, 24 h", "result": 8.3, "unit": "pg/mL"}, {"measurement": "Serum Ionized Calcium", "setting": "[2]; 240 mg oral, 24 h", "result": 1.23, "unit": "mM"}, {"measurement": "Serum PTH", "setting": "[2]; 240 mg oral, 24 h", "result": 34, "unit": "pg/mL"}, {"measurement": "Serum Calcitonin", "setting": "[2]; 400 mg oral, 0 h", "result": 3.4, "unit": "pg/mL"}, {"measurement": "Serum Ionized Calcium", "setting": "[2]; 400 mg oral, 0 h", "result": 1.24, "unit": "mM"}, {"measurement": "Serum PTH", "setting": "[2]; 400 mg oral, 0 h", "result": 33, "unit": "pg/mL"}, {"measurement": "Serum Calcitonin", "setting": "[2]; 400 mg oral, 0.5 h", "result": 4.0, "unit": "pg/mL"}, {"measurement": "Serum Ionized Calcium", "setting": "[2]; 400 mg oral, 0.5 h", "result": 1.26, "unit": "mM"}, {"measurement": "Serum PTH", "setting": "[2]; 400 mg oral, 0.5 h", "result": 13, "unit": "pg/mL"}, {"measurement": "Serum Calcitonin", "setting": "[2]; 400 mg oral, 1 h", "result": 6.0, "unit": "pg/mL"}, {"measurement": "Serum Ionized Calcium", "setting": "[2]; 400 mg oral, 1 h", "result": 1.25, "unit": "mM"}, {"measurement": "Serum PTH", "setting": "[2]; 400 mg oral, 1 h", "result": 9, "unit": "pg/mL"}, {"measurement": "Serum Calcitonin", "setting": "[2]; 400 mg oral, 2 h", "result": 7.1, "unit": "pg/mL"}, {"measurement": "Serum Ionized Calcium", "setting": "[2]; 400 mg oral, 2 h", "result": 1.22, "unit": "mM"}, {"measurement": "Serum PTH", "setting": "[2]; 400 mg oral, 2 h", "result": 8, "unit": "pg/mL"}, {"measurement": "Serum Calcitonin", "setting": "[2]; 400 mg oral, 4 h", "result": 5.2, "unit": "pg/mL"}, {"measurement": "Serum Ionized Calcium", "setting": "[2]; 400 mg oral, 4 h", "result": 1.19, "unit": "mM"}, {"measurement": "Serum PTH", "setting": "[2]; 400 mg oral, 4 h", "result": 11, "unit": "pg/mL"}, {"measurement": "Serum Calcitonin", "setting": "[2]; 400 mg oral, 8 h", "result": 3.8, "unit": "pg/mL"}, {"measurement": "Serum Ionized Calcium", "setting": "[2]; 400 mg oral, 8 h", "result": 1.13, "unit": "mM"}, {"measurement": "Serum PTH", "setting": "[2]; 400 mg oral, 8 h", "result": 20, "unit": "pg/mL"}, {"measurement": "Serum Calcitonin", "setting": "[2]; 400 mg oral, 12 h", "result": 3.7, "unit": "pg/mL"}, {"measurement": "Serum Ionized Calcium", "setting": "[2]; 400 mg oral, 12 h", "result": 1.15, "unit": "mM"}, {"measurement": "Serum PTH", "setting": "[2]; 400 mg oral, 12 h", "result": 31, "unit": "pg/mL"}, {"measurement": "Serum Calcitonin", "setting": "[2]; 400 mg oral, 24 h", "result": 3.0, "unit": "pg/mL"}, {"measurement": "Serum Ionized Calcium", "setting": "[2]; 400 mg oral, 24 h", "result": 1.22, "unit": "mM"}, {"measurement": "Serum PTH", "setting": "[2]; 400 mg oral, 24 h", "result": 31, "unit": "pg/mL"}, {"measurement": "effect on serum ionized calcium (summary)", "setting": "[2]; human, higher oral doses", "result": "decrease in serum ionized calcium concentration"}, {"measurement": "effect on plasma PTH (summary)", "setting": "[2]; human, oral", "result": "transient dose-dependent decrease in plasma PTH concentration"}, {"measurement": "effect on serum calcitonin (summary)", "setting": "[2]; human, oral", "result": "no apparent change in serum calcitonin"}]}, {"smiles": "NC[C@@H]1O[C@H](O[C@H]2[C@@H](O)[C@H](O[C@@H]3[C@@H](O)[C@H](N)C[C@H](N)[C@H]3O[C@H]3O[C@H](CN)[C@@H](O)[C@H](O)[C@H]3N)O[C@@H]2CO)[C@H](N)[C@@H](O)[C@@H]1O", "note": "[Neomycin]", "values": [{"measurement": "Net (+) Charge", "setting": "[3]; Table 1, at physiological pH", "result": "+6"}, {"measurement": "net positive charge at pH 7.3", "setting": "[3]; pH 7.3", "result": "+6"}]}]}
